Measured values reported in ChEMBL document CHEMBL1201862, “PubChem BioAssay data set” (2004).
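Following 48 hours of exposure in 96-well plates, responses at five concentrations were used to interpolate endpoints linearly. The concentration for 50% growth inhibition is given as GI50.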 Active and inactive are the calls of the source. Rule as the data show it: active = GI50 up to about 1.1 µM and inactive = higher.

What was measured:
Experiment in all cases: inhibition of tumour cell growth, NCI panel, 48 h
[1] = test system: CAKI-1
[2] = test system: RPMI-8226
[3] = test system: IGROV-1
[4] = test system: NCI-H23
[5] = test system: SK-OV-3
[6] = test system: Malme-3M
[7] = test system: M14
[8] = test system: DU-145
[9] = test system: HCT-15
[10] = test system: SK-MEL-28
[11] = test system: TK-10
[12] = test system: MOLT-4
[13] = test system: SF-295
[14] = test system: NCI-H522
[15] = test system: NCI-H226
[16] = test system: A498
[17] = test system: OVCAR-5
[18] = test system: HL-60
[19] = test system: SN12C
[20] = test system: SW-620
[21] = test system: HOP-92
[22] = test system: SK-MEL-2
[23] = test system: NCI-H460
[24] = test system: A549
[25] = test system: OVCAR-8
[26] = test system: U-251
[27] = test system: HCC 2998
[28] = test system: OVCAR-3
[29] = test system: HCT-116
[30] = test system: SK-MEL-5
[31] = test system: KM12
[32] = test system: NCI/ADR-RES
[33] = test system: CCRF-CEM
[34] = test system: SF-539
[35] = test system: SNB-75
[36] = test system: UO-31
[37] = test system: UACC-62
[38] = test system: LOX IMVI
[39] = test system: RXF 393
[40] = test system: SR
[41] = test system: EKVX
[42] = test system: PC-3
[43] = test system: 786-0
[44] = test system: OVCAR-4
[45] = test system: MDA-MB-435
[46] = test system: MDA-MB-231
[47] = test system: K562
[48] = test system: BT-549
[49] = test system: MCF7
[50] = test system: UACC-257
[51] = test system: ACHN
[52] = test system: COLO 205
[53] = test system: SNB-19

Compound: Cc1ccc(S(=O)(=O)Nn2c(S)c(C#N)c(-c3ccc(Cl)cc3)c(C#N)c2=O)cc1
- GI50 [1]: 32.7 µM (inactive)
- GI50 [2]: 26.2 µM (inactive)
- GI50 [3]: 20.6 µM (inactive)
- GI50 [4]: 30 µM (inactive)
- GI50 [5]: 61 µM (inactive)
- GI50 [6]: 30.8 µM (inactive)
- GI50 [7]: 38.1 µM (inactive)
- GI50 [8]: 52.2 µM (inactive)
- GI50 [9]: 25.9 µM
- GI50 [10]: 31.2 µM (inactive)
- GI50 [11]: 25.6 µM (inactive)
- GI50 [12]: 24.7 µM (inactive)
- GI50 [13]: 32.9 µM (inactive)
- GI50 [14]: 16.6 µM (inactive)
- GI50 [15]: 16.4 µM (inactive)
- GI50 [16]: 26.5 µM (inactive)
- GI50 [17]: 50.1 µM (inactive)
- GI50 [18]: 23 µM (inactive)
- GI50 [19]: 25.7 µM (inactive)
- GI50 [20]: 22.4 µM (inactive)
- GI50 [21]: 59 µM (inactive)
- GI50 [22]: 56.8 µM (inactive)
- GI50 [23]: 17 µM (inactive)
- GI50 [24]: 43.7 µM (inactive)
- GI50 [25]: 22 µM (inactive)
- GI50 [26]: 22.2 µM (inactive)
- GI50 [27]: 38.8 µM (inactive)
- GI50 [28]: 53.6 µM (inactive)
- GI50 [29]: 28.4 µM (inactive)
- GI50 [30]: 16.4 µM (inactive)
- GI50 [31]: 36.2 µM (inactive)
- GI50 [32]: 27.5 µM (inactive)
- GI50 [33]: 7.93 µM (inactive)
- GI50 [34]: 19.6 µM (inactive)
- GI50 [35]: 33.8 µM (inactive)
- GI50 [36]: 19.1 µM (inactive)
- GI50 [37]: 27.7 µM (inactive)
- GI50 [38]: 29.9 µM (inactive)
- GI50 [39]: 32.3 µM (inactive)
- GI50 [40]: 29.7 µM (inactive)
- GI50 [41]: 32.9 µM (inactive)
- GI50 [42]: 24.4 µM (inactive)
- GI50 [43]: 32.6 µM (inactive)
- GI50 [44]: 15.1 µM (inactive)
- GI50 [45]: 27.1 µM (inactive)
- GI50 [46]: 36.2 µM (inactive)
- GI50 [47]: 38.6 µM (inactive)
- GI50 [48]: 17.3 µM (inactive)
- GI50 [49]: 44.6 µM (inactive)
- GI50 [50]: 45.3 µM (inactive)
- GI50 [51]: 31.6 µM (inactive)
- GI50 [52]: 35.6 µM (inactive)
- GI50 [53]: 35.4 µM (inactive)
